# Experimental data from patent publication US9981959B2, “Thiazolyl and oxazolyl urea, thiourea, guanidine and cyanoguanidine compounds as TrkA kinase inhibitors” (Array BioPharma Inc., priority 2012, dated 2018).
# Columns and labels:
# Assay in all cases: KinaseProfiler off-target kinase profiling
# Format in all cases: biochemical
# Settings in all cases: 10 μM, ATP near Km
# DAPK2 = target: T1, DAPK2 (Homo sapiens, UniProt Q9UIK4)
# T1 construct: purchased Millipore, Inc. (KinaseProfiler service)
# Experimental: (§1) A representative compound of the invention (Example 2) was tested for off-target kinase activity at a concentration of 10 μM by Millipore, Inc. in their KinaseProfiler™ service against all the kinases available in their full kinase panel. The compound was run in duplicate at a concentration of ATP near the Km for each individual kinase according to Millipore's specifications. The results are shown in Table B. Data are reported as percent of control (POC) and are the average of the two replicates.
# MAP4K2 = target: T2, MAP4K2 (Homo sapiens, UniProt Q12851)
# T2 construct: purchased Millipore, Inc. (KinaseProfiler service)
# Experimental: as §1
# Fgr = target: T3, Fgr (Homo sapiens, UniProt P09769)
# T3 construct: purchased Millipore, Inc. (KinaseProfiler service)
# Experimental: as §1
# PKD2 = target: T4, PKD2 (Homo sapiens, UniProt Q9BZL6)
# T4 construct: purchased Millipore, Inc. (KinaseProfiler service)
# Experimental: as §1
# PDGFRalpha = target: T5, PDGFRalpha (Homo sapiens, UniProt P16234)
# T5 construct: purchased Millipore, Inc. (KinaseProfiler service)
# Experimental: as §1
# CAMK2d = target: T6, CAMK2d (Homo sapiens, UniProt Q13557)
# T6 construct: purchased Millipore (KinaseProfiler service)
# Experimental: as §1
# ROCK-II = target: T7, ROCK-II (Homo sapiens, UniProt O75116)
# T7 construct: purchased Millipore, Inc. (KinaseProfiler service)
# Experimental: as §1
# Ret = target: T8, Ret (Homo sapiens, UniProt P07949)
# T8 construct: purchased Millipore, Inc. (KinaseProfiler service)
# Experimental: as §1
# PRK2 = target: T9, PRK2 (Homo sapiens, UniProt Q16513)
# T9 construct: purchased Millipore, Inc. (KinaseProfiler service)
# Experimental: as §1
# Lck = target: T10, Lck (Homo sapiens, UniProt P06239)
# T10 construct: purchased Millipore, Inc. (KinaseProfiler service)
# Experimental: as §1
# TAO1 = target: T11, TAO1 (Homo sapiens, UniProt Q7L7X3)
# T11 construct: purchased Millipore, Inc. (KinaseProfiler service)
# Experimental: as §1
# Bmx = target: T12, Bmx (Homo sapiens, UniProt P51813)
# T12 construct: purchased Millipore (KinaseProfiler service)
# Experimental: as §1
# PKAC-alpha = target: T13, PKAC-alpha (Homo sapiens, UniProt P17612)
# T13 construct: purchased Millipore, Inc. (KinaseProfiler service)
# Experimental: as §1
# GRK5 = target: T14, GRK5 (Homo sapiens, UniProt P34947)
# T14 construct: purchased Millipore, Inc. (KinaseProfiler service)
# Experimental: as §1
# EphB3 = target: T15, EphB3 (Homo sapiens, UniProt P54753)
# T15 construct: purchased Millipore, Inc. (KinaseProfiler service)
# Experimental: as §1
# ALK4 = target: T16, ALK4 (Homo sapiens, UniProt P36896)
# T16 construct: purchased Millipore (KinaseProfiler service)
# Experimental: as §1
# STK33 = target: T17, STK33 (Homo sapiens, UniProt Q9BYT3)
# T17 construct: purchased Millipore, Inc. (KinaseProfiler service)
# Experimental: as §1
# ErbB4 = target: T18, ErbB4 (Homo sapiens, UniProt Q15303)
# T18 construct: purchased Millipore, Inc. (KinaseProfiler service)
# Experimental: as §1
# MSK2 = target: T19, MSK2 (Homo sapiens, UniProt O75676)
# T19 construct: purchased Millipore, Inc. (KinaseProfiler service)
# Experimental: as §1
# NEK11 = target: T20, NEK11 (Homo sapiens, UniProt Q8NG66)
# T20 construct: purchased Millipore, Inc. (KinaseProfiler service)
# Experimental: as §1
# mTOR = target: T21, mTOR (Homo sapiens, UniProt P42345)
# T21 construct: purchased Millipore, Inc. (KinaseProfiler service)
# Experimental: as §1
# Lyn = target: T22, Lyn (Homo sapiens, UniProt P07948)
# T22 construct: purchased Millipore, Inc. (KinaseProfiler service)
# Experimental: as §1
# Flt3 = target: T23, Flt3 (Homo sapiens, UniProt P36888)
# T23 construct: purchased Millipore, Inc. (KinaseProfiler service)
# Experimental: as §1
# CAMK4 = target: T24, CAMK4 (Homo sapiens, UniProt Q16566)
# T24 construct: purchased Millipore (KinaseProfiler service)
# Experimental: as §1
# WNK2 = target: T25, WNK2 (Homo sapiens, UniProt Q9Y3S1)
# T25 construct: purchased Millipore, Inc. (KinaseProfiler service)
# Experimental: as §1
# p38gamma = target: T26, p38gamma (Homo sapiens, UniProt P53778)
# T26 construct: purchased Millipore, Inc. (KinaseProfiler service)
# Experimental: as §1
# SRPK1 = target: T27, SRPK1 (Homo sapiens, UniProt Q96SB4)
# T27 construct: purchased Millipore, Inc. (KinaseProfiler service)
# Experimental: as §1
# CDK2/cyclinE = target: T28, CDK2/cyclinE (Homo sapiens, UniProt P24941)
# T28 construct: purchased Millipore, Inc. (KinaseProfiler service)
# Experimental: as §1
# MRCKbeta = target: T29, MRCKbeta (Homo sapiens, UniProt Q9Y5S2)
# T29 construct: purchased Millipore, Inc. (KinaseProfiler service)
# Experimental: as §1
# Met = target: T30, Met (Homo sapiens, UniProt P08581)
# T30 construct: purchased Millipore, Inc. (KinaseProfiler service)
# Experimental: as §1
# TAO2 = target: T31, TAO2 (Homo sapiens, UniProt Q9UL54)
# T31 construct: purchased Millipore, Inc. (KinaseProfiler service)
# Experimental: as §1
# EphB2 = target: T32, EphB2 (Homo sapiens, UniProt P29323)
# T32 construct: purchased Millipore, Inc. (KinaseProfiler service)
# Experimental: as §1
# Rsk4 = target: T33, Rsk4 (Homo sapiens, UniProt Q9UK32)
# T33 construct: purchased Millipore, Inc. (KinaseProfiler service)
# Experimental: as §1
# AMPK(A1/B1/G1) = target: T34, AMPK(A1/B1/G1) (Homo sapiens, UniProt Q13131)
# T34 construct: purchased Millipore (KinaseProfiler service)
# Experimental: as §1
# RIPK2 = target: T35, RIPK2 (Homo sapiens, UniProt O43353)
# T35 construct: purchased Millipore, Inc. (KinaseProfiler service)
# Experimental: as §1
# DAPK3 = target: T36, DAPK3 (Homo sapiens, UniProt O43293)
# T36 construct: purchased Millipore, Inc. (KinaseProfiler service)
# Experimental: as §1
# MAPKAP-K5 = target: T37, MAPKAP-K5 (Homo sapiens, UniProt Q8IW41)
# T37 construct: purchased Millipore, Inc. (KinaseProfiler service)
# Experimental: as §1
# NLK = target: T38, NLK (Homo sapiens, UniProt Q9UBE8)
# T38 construct: purchased Millipore, Inc. (KinaseProfiler service)
# Experimental: as §1
# BLK_m = target: T39, BLK_m (Mus musculus, UniProt P16277)
# T39 construct: purchased Millipore (KinaseProfiler service)
# Experimental: as §1
# Abl-P = target: T40, Abl-P (Homo sapiens, UniProt P00519)
# T40 construct: purchased Millipore (KinaseProfiler service)
# Experimental: as §1
# IR = target: T41, IR (Homo sapiens, UniProt P06213)
# T41 construct: purchased Millipore, Inc. (KinaseProfiler service)
# Experimental: as §1
# T23 sequence (P36888 27-993): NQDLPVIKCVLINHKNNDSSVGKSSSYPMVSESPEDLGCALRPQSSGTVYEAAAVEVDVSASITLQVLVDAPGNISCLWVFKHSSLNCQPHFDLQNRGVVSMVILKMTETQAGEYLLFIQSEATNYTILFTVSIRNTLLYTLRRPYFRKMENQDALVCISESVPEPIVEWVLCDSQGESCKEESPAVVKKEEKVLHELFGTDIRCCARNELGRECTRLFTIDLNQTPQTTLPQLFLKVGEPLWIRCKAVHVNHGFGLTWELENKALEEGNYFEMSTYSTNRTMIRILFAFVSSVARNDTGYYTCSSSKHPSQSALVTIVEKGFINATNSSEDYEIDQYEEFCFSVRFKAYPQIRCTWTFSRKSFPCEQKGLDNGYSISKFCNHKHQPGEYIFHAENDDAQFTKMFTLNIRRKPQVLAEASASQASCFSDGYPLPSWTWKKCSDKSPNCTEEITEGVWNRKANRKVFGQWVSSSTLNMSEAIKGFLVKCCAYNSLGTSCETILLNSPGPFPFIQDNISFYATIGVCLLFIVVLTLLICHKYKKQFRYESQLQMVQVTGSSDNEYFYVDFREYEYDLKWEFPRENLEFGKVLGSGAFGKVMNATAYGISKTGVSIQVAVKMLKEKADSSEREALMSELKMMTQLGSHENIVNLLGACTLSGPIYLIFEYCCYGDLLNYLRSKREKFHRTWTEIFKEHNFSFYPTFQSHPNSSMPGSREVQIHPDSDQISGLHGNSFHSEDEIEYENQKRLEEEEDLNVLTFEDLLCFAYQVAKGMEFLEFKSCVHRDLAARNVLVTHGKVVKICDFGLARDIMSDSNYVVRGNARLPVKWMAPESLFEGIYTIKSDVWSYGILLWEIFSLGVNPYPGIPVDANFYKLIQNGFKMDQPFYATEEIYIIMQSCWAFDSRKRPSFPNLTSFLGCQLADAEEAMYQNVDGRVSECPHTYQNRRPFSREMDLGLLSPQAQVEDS
# T24 sequence (Q16566 whole entry): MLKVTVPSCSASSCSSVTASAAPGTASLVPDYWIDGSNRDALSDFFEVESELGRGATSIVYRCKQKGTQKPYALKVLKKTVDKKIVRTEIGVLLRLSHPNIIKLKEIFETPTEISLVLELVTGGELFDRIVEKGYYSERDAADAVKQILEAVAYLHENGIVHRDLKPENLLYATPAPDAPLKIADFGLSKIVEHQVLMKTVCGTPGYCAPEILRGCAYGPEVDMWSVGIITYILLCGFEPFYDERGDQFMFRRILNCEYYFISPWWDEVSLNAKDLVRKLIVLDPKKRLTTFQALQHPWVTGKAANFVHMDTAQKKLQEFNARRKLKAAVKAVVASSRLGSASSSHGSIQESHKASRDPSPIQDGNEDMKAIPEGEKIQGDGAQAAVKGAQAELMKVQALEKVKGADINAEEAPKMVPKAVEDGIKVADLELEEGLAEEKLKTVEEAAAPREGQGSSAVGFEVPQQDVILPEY
# T11 sequence (Q7L7X3 whole entry): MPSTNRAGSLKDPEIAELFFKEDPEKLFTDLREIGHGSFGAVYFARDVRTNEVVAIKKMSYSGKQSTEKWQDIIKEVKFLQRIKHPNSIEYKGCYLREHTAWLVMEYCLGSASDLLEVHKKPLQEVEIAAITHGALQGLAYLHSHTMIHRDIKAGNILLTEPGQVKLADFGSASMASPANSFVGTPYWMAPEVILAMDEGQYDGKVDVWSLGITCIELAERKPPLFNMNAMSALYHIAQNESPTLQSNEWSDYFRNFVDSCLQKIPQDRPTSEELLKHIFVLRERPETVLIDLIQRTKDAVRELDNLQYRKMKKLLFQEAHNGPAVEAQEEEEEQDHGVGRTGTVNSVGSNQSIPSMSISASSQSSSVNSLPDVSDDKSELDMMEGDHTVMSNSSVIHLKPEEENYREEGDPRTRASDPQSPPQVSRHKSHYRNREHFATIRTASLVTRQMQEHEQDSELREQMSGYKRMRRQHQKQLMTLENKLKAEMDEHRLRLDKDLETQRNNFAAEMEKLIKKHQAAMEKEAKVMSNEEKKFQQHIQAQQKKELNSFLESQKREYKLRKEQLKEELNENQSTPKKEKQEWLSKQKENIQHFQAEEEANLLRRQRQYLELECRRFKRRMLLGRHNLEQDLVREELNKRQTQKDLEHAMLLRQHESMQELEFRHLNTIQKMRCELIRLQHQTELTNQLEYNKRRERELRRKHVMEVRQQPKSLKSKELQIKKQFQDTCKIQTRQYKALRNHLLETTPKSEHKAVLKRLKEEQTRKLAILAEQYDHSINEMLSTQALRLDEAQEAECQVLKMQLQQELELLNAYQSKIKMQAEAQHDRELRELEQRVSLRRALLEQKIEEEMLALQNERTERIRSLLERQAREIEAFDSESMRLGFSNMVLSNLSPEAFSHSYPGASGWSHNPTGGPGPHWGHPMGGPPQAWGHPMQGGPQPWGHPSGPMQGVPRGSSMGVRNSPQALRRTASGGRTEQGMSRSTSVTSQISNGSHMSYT
# T27 sequence (Q96SB4 whole entry): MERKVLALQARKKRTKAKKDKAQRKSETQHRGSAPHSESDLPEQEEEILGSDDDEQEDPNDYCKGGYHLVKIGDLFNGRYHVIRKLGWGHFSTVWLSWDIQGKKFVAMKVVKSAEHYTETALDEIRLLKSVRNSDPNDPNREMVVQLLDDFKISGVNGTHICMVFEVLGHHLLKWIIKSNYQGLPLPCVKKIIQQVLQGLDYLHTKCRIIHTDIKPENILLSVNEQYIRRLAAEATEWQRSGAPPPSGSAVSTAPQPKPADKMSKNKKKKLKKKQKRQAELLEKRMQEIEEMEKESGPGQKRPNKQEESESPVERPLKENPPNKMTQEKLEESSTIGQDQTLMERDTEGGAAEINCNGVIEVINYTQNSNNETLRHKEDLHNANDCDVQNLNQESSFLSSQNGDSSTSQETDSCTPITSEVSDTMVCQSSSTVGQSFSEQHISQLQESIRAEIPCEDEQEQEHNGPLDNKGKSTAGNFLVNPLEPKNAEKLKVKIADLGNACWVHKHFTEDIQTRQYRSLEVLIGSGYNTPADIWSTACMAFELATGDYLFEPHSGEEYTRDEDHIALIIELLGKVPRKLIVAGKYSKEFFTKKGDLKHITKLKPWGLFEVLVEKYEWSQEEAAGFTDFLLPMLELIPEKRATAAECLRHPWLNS
# T36 sequence (O43293 whole entry): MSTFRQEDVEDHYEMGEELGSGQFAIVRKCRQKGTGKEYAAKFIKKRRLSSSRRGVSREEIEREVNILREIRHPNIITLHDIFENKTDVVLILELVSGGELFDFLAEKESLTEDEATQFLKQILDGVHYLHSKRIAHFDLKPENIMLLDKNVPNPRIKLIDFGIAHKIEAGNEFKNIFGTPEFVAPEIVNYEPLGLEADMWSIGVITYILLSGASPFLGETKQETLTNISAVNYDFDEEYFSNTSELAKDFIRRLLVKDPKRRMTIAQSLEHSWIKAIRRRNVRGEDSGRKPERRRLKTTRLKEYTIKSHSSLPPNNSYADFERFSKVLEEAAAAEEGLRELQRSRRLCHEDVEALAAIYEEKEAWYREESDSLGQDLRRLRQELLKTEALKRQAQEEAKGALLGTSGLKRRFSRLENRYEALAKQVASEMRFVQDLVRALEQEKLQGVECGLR
# T34 sequence (Q13131 whole entry): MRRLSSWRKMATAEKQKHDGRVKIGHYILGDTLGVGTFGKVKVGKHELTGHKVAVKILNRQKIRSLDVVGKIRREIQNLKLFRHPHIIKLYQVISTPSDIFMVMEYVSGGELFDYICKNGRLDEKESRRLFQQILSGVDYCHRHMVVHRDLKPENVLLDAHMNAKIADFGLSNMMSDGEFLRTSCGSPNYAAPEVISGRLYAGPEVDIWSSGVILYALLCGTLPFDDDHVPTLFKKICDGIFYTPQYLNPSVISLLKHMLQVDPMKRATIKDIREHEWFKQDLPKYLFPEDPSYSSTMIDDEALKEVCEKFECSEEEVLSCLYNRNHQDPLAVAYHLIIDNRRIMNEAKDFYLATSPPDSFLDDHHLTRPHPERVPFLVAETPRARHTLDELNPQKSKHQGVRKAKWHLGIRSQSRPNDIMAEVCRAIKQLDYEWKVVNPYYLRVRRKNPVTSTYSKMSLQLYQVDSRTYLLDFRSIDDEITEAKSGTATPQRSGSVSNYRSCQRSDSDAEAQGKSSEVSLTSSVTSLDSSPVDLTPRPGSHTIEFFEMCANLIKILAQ
# T34 sequence (Q9Y478 whole entry partner): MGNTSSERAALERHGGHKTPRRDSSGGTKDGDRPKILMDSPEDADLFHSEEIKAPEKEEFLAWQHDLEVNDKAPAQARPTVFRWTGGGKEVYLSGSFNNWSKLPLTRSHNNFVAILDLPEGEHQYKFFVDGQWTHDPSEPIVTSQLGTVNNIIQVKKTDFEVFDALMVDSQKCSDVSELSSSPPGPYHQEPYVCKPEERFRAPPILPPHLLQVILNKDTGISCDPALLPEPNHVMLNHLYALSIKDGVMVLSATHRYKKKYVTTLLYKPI
# T34 sequence (P54619 whole entry partner): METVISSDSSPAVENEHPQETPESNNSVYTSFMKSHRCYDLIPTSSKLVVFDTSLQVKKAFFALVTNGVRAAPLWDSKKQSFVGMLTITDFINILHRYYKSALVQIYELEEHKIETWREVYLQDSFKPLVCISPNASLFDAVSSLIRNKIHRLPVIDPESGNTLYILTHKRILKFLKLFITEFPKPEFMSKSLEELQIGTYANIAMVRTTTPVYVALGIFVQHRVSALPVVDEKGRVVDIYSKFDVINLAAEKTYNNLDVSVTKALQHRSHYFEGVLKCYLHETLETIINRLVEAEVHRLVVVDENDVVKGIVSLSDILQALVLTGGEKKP
smiles,measurement,setting,value
"Cc1c(-c2cnn(C)c2)nn(-c2ccccc2)c1NC(=O)Nc1sc(C(F)(F)F)nc1-c1ccccc1 [Example 2, 1-(1′,4-dimethyl-1-phenyl-1H,1′H-[3,4′-bipyrazol]-5-yl)-3-(4-phenyl-2-(trifluoromethyl)thiazol-5-yl)urea]",Avg POC,DAPK2,103.5 POC
same,Avg POC,MAP4K2,121.5 POC
same,Avg POC,Fgr,128 POC
same,Avg POC,PKD2,110.5 POC
same,Avg POC,PDGFRalpha,102.5 POC
same,Avg POC,CAMK2d,118 POC
same,Avg POC,ROCK-II,115.5 POC
same,Avg POC,Ret,91.5 POC
same,Avg POC,PRK2,104.5 POC
same,Avg POC,Lck,103 POC
same,Avg POC,TAO1,103.5 POC
same,Avg POC,Bmx,129.5 POC
same,Avg POC,PKAC-alpha,134 POC
same,Avg POC,GRK5,82.5 POC
same,Avg POC,EphB3,72.5 POC
same,Avg POC,ALK4,107 POC
same,Avg POC,STK33,120.5 POC
same,Avg POC,ErbB4,125 POC
same,Avg POC,MSK2,136 POC
same,Avg POC,NEK11,73.5 POC
same,Avg POC,mTOR,92.5 POC
same,Avg POC,Lyn,103.5 POC
same,Avg POC,Flt3,98 POC
same,Avg POC,CAMK4,132.5 POC
same,Avg POC,WNK2,115 POC
same,Avg POC,p38gamma,105 POC
same,Avg POC,SRPK1,114 POC
same,Avg POC,CDK2/cyclinE,100 POC
same,Avg POC,MRCKbeta,113 POC
same,Avg POC,Met,120 POC
same,Avg POC,TAO2,123.5 POC
same,Avg POC,EphB2,119 POC
same,Avg POC,Rsk4,98 POC
same,Avg POC,AMPK(A1/B1/G1),134.5 POC
same,Avg POC,RIPK2,98 POC
same,Avg POC,DAPK3,120 POC
same,Avg POC,MAPKAP-K5,95.5 POC
same,Avg POC,NLK,125.5 POC
same,Avg POC,BLK_m,112 POC
same,Avg POC,Abl-P,148 POC
same,Avg POC,IR,99 POC
